Values of other authors in US10550186B2, “Cancer therapy targeting intercellular adhesion molecule 4 (ICAM4)” (Beth Israel Deaconess Medical Center, Inc., priority 2014, dated 2020).

Conditions: more cytotoxic than the comparators

Structure (SMILES): COc1cc2cc(c1Cl)N(C)C(=O)C[C@H](OC(=O)[C@H](C)N(C)C(C)=O)[C@]1(C)O[C@H]1[C@H](C)[C@@H]1C[C@@](O)(NC(=O)O1)[C@H](OC)/C=C/C=C(\C)C2 [Maytansine]
- cytotoxicity relative to doxorubicin, methotrexate and vinca alkyloid: 100- to 1000 fold
